Patent publication US20220249463A1, “METHODS OF ALTERING CARDIAC REMODELING USING COMPOUNDS THAT PROMOTE GLUCOSE OXIDATION” (IMBRIA PHARMACEUTICALS, INC., priority 2019, published 2022)

Assay: Stability of CV-8972 in aqueous solution at different concentrations and pH
Type: physicochemical
Method: The stability of CV-8972 was analyzed. Aqueous samples containing CV-8972 at different concentrations and pH were incubated for various periods and analyzed.
Form A of CV-8972 were analyzed for stability in aqueous solution. Aqueous samples containing CV-8972 at different concentrations and pH were incubated for various periods and analyzed.

[1] = 276-MBA-172 2 mg/mL pH 6 (Form A), 0 hrs, pH 6.1
[2] = 276-MBA-172 2 mg/mL pH 6 (Form A), 1 hrs, pH 6.1
[3] = 276-MBA-172 2 mg/mL pH 6 (Form A), 4 hrs, pH 6.1
[4] = 276-MBA-172 2 mg/mL pH 6 (Form A), 6 hrs, pH 6.1
[5] = 276-MBA-172 2 mg/mL pH 7 (Form A), 0 hrs, pH 6.7
[6] = 276-MBA-172 2 mg/mL pH 7 (Form A), 1 hrs, pH 6.8
[7] = 276-MBA-172 2 mg/mL pH 7 (Form A), 4 hrs, pH 6.7
[8] = 276-MBA-172 2 mg/mL pH 7 (Form A), 6 hrs, pH 6.7
[9] = 276-MBA-172 2 mg/mL pH 7 (Form A), 22 hrs, pH 6.8
[10] = 276-MBA-172 10 mg/mL pH 6 (Form A), 0 hrs, pH 6.6
[11] = 276-MBA-172 10 mg/mL pH 6 (Form A), 1 hrs, pH 6.8
[12] = 276-MBA-172 10 mg/mL pH 6 (Form A), 4 hrs, pH 6.8
[13] = 276-MBA-172 10 mg/mL pH 6 (Form A), 6 hrs, pH 6.7
[14] = 276-MBA-172 10 mg/mL pH 6 (Form A), 22 hrs, pH 6.7
[15] = 276-MBA-172 10 mg/mL pH 7 (Form A), 0 hrs, pH 7.1
[16] = 276-MBA-172 10 mg/mL pH 7 (Form A), 1 hrs, pH 7.2
[17] = 276-MBA-172 10 mg/mL pH 7 (Form A), 4 hrs, pH 7.1
[18] = 276-MBA-172 10 mg/mL pH 7 (Form A), 6 hrs, pH 7.1
[19] = 289-MBA-15-A 2 mg/mL pH 6 (Form B), 0 hrs, pH 6.9
[20] = 289-MBA-15-A 2 mg/mL pH 6 (Form B), 1 hrs, pH 6.9
[21] = 289-MBA-15-A 2 mg/mL pH 6 (Form B), 4 hrs, pH 6.8
[22] = 289-MBA-15-A 2 mg/mL pH 6 (Form B), 6 hrs, pH 6.8

Retention Time 4.2 [1]: 1.29 | Retention Time 5.6 [1]: 98.01 | Decrease in purity of CV-8972 between time points [2]: 0.79 | Retention Time 2.2 [2]: 1.5 | Retention Time 4.2 [2]: 1.28 | Retention Time 5.6 [2]: 97.22 | Decrease in purity of CV-8972 between time points [3]: 0.21 | Retention Time 2.2 [3]: 2.03 | Retention Time 4.2 [3]: 0.95 | Retention Time 5.6 [3]: 97.01 | Decrease in purity of CV-8972 between time points [4]: 0.5 | Retention Time 2.2 [4]: 2.47 | Retention Time 4.2 [4]: 1.02 | Retention Time 5.6 [4]: 96.51 | Retention Time 2.2 [5]: 1.42 | Retention Time 4.2 [5]: 1.05 | Retention Time 5.6 [5]: 97.53 | Decrease in purity of CV-8972 between time points [6]: 2.47 | Retention Time 2.2 [6]: 3.31 | Retention Time 4.2 [6]: 1.06 | Retention Time 4.7 [6]: 0.57 | Retention Time 5.6 [6]: 95.06 | Decrease in purity of CV-8972 between time points [7]: 1.36 | Retention Time 2.2 [7]: 4.21 | Retention Time 2.6 [7]: 0.58 | Retention Time 4.2 [7]: 0.82 | Retention Time 4.7 [7]: 0.69 | Retention Time 5.6 [7]: 93.7 | Decrease in purity of CV-8972 between time points [8]: 1.58 | Retention Time 2.2 [8]: 5.63 | Retention Time 2.6 [8]: 0.67 | Retention Time 4.2 [8]: 0.74 | Retention Time 4.7 [8]: 0.85 | Retention Time 5.6 [8]: 92.12 | Decrease in purity of CV-8972 between time points [9]: 1.05 | Retention Time 2.2 [9]: 6.26 | Retention Time 2.6 [9]: 0.85 | Retention Time 4.2 [9]: 0.85 | Retention Time 4.7 [9]: 0.98 | Retention Time 5.6 [9]: 91.07 | Retention Time 2.2 [10]: 3.39 | Retention Time 2.6 [10]: 0.6 | Retention Time 4.2 [10]: 0.23 | Retention Time 4.7 [10]: 0.54 | Retention Time 5.6 [10]: 95.24 | Decrease in purity of CV-8972 between time points [11]: 1.81 | Retention Time 2.2 [11]: 4.81 | Retention Time 2.6 [11]: 0.81 | Retention Time 4.2 [11]: 0.23 | Retention Time 4.7 [11]: 0.73 | Retention Time 5.6 [11]: 93.43 | Decrease in purity of CV-8972 between time points [12]: 1.61 | Retention Time 2.2 [12]: 5.72 | Retention Time 2.6 [12]: 0.9 | Retention Time 4.2 [12]: 0.21 | Retention Time 4.7 [12]: 0.83 | Retention Time 5.6 [12]: 91.82 | Decrease in purity of CV-8972 between time points [13]: 0.02 | Retention Time 2.2 [13]: 6.45 | Retention Time 2.6 [13]: 0.81 | Retention Time 4.7 [13]: 0.93 | Retention Time 5.6 [13]: 91.8 | Decrease in purity of CV-8972 between time points [14]: 2.14 | Retention Time 2.2 [14]: 7.38 | Retention Time 2.6 [14]: 1.54 | Retention Time 4.2 [14]: 0.13 | Retention Time 4.7 [14]: 1.11 | Retention Time 5.6 [14]: 89.66 | Retention Time 2.2 [15]: 5.9 | Retention Time 2.6 [15]: 0.94 | Retention Time 4.2 [15]: 0.22 | Retention Time 4.7 [15]: 0.78 | Retention Time 5.6 [15]: 92.85 | Decrease in purity of CV-8972 between time points [16]: 3.8 | Retention Time 2.2 [16]: 8.12 | Retention Time 2.6 [16]: 1.45 | Retention Time 4.2 [16]: 0.21 | Retention Time 4.7 [16]: 1.17 | Retention Time 5.6 [16]: 89.05 | Decrease in purity of CV-8972 between time points [17]: 2.25 | Retention Time 2.2 [17]: 10.14 | Retention Time 2.6 [17]: 1.48 | Retention Time 4.2 [17]: 0.13 | Retention Time 4.7 [17]: 1.46 | Retention Time 5.6 [17]: 86.8 | Decrease in purity of CV-8972 between time points [18]: 2.01 | Retention Time 2.2 [18]: 11.63 | Retention Time 2.6 [18]: 1.78 | Retention Time 4.2 [18]: 0.13 | Retention Time 4.7 [18]: 1.67 | Retention Time 5.6 [18]: 84.79 | Retention Time 2.2 [19]: 1.33 | Retention Time 4.2 [19]: 1.19 | Retention Time 5.6 [19]: 97.48 | Decrease in purity of CV-8972 between time points [20]: 2.38 | Retention Time 2.2 [20]: 3.73 | Retention Time 4.2 [20]: 1.17 | Retention Time 5.6 [20]: 95.1 | Decrease in purity of CV-8972 between time points [21]: 2.65 | Retention Time 2.2 [21]: 5.25 | Retention Time 2.6 [21]: 0.67 | Retention Time 4.2 [21]: 0.84 | Retention Time 4.7 [21]: 0.79 | Retention Time 5.6 [21]: 92.45 | Decrease in purity of CV-8972 between time points [22]: 1.8 | Retention Time 2.2 [22]: 6.63 | Retention Time 2.6 [22]: 0.9 | Retention Time 4.2 [22]: 0.83 | Retention Time 4.7 [22]: 0.99 | Retention Time 5.6 [22]: 90.65 | Decrease in purity of CV-8972 between time points (289-MBA-15-A 2 mg/mL pH 6 (Form B), 22 hrs, pH 6.7): 1.5
SMILES: COc1ccc(CN2CCN(CCOC(=O)c3cccnc3)CC2)c(OC)c1OC [CV-8972, 2-(4-(2,3,4-trimethoxybenzyl)piperazin-1-yl)ethyl nicotinate]
